Patent US5942494A, “Stimulation of gene expression and synthesis of heat shock protein 72/73 (HSP 70)” (The Trustees of Columbia University in the City of New York, priority 1996, dated 1999)
Square brackets hold non-standard residues; d marks the D form. Peptide text beside a SMILES is read from it. Nle = CCCC[C@H](N)C(=O)O

Assays:
[1] = system: Hsp70; test: Cellular Hsp70 levels in CHO cells; assay type: cell-based, Chinese hamster
[2] = system: HSF1; test: EGS cross-linking and Western blot of HSF1 oligomeric forms in HepG2 cells; assay type: cell-based, human; settings: ALLN 40 μg/ml, 2 hours at 37° C., EGS cross-linking
Method: FIGS. 6A-6B: ALLN affects the trimerization of HSF. HepG2 cells were treated with serum-free MEM containing 1.5% BSA for 2 hours at 37° C. without any additions (lane1), at 37 ° C. but containing 40μg/ml of ALLN in the medium (lane2), at 37° C. in a medium containing both ALLN and 50 μg/ml of cycloheximide (lane3) , at 42° C. alone (lane4), or at 42° C. plus cycloheximide in the medium (lane5). Cell lysates were prepared as described under Experimental Details. The lysates were either directly run on the SDS-PAGE (A) to show the steady-state protein levels of HSF1 or subjected to cross-linking with ethylene glycol bis sucrinimidylsuccinate (EGS) before running the gel (B) to show the oligomeric forms of HSF1. The proteins were then transfered to a nitrocellulose membrane and immunoblotted with anti-human HSF1 antibody. Arrows on the right side indicates the monomeric, dimeric or trimeric forms of HSF1, respectively. This experiment was repeated three times with identical results.
For measurement of the steady-state HSF1 protein levels, whole cell extracts were prepared by lysing the cells directly with 2×SDS-sample buffer (Maniatis, et al., 1982). For chemical cross-linking experiments, whole-cell extracts were prepared as described (Mosser, et al., 1988). Briefly, the cold PBS-washed cell pellets were quickly and repeatedly frozen in liquid nitrogen. […]

[3] = system: calpain; settings: Rock, et al., 1994; cited from earlier work

CCCC[C@@H](C=O)NC(=O)[C@H](CC(C)C)NC(=O)[C@H](CC(C)C)NC(C)=O [ALLN, N-acetyl-leucyl-leucyl-norleucinal] (Ac-Leu-Leu-[Nle]-aldehyde)
Response of cellular Hsp70 levels [1]: increasing cellular Hsp70 levels | Oligomeric form of HSF1 (270-kDa cross-linked product) [2]: trimer | Activity against calpain [3]: significant activities
